Data taken from patent US20110071108A1, “Beta-Cyclodextrin Derivatives as Antibacterial Agents” (Pinnacle Pharmaceuticals, Inc., priority 2005, published 2011).
One block for each molecule: values may come before it.

What was measured:
Enterococcus faecium = assay: Bacterial panel testing, MIC by broth microdilution; assay type: cell-based; settings: 20-24 hours growth
Method in brief: (§1)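 Bacteria are cultured briefly at 37° C, standardized to McFarland density and diluted into Mueller-Hinton or Brain Heart infusion media. Compound from a 10 μg/ml DMSO solution is serially diluted twofold in this inoculated medium, and growth inhibition is scored as clear wells after 20-24 h.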

Eschericia coli = assay: as above; assay type: cell-based; settings: 20-24 hours growth
Method in brief: as §1

Pseudomonas aeruginosa = assay: as above; assay type: cell-based; settings: 20-24 hours growth
Method in brief: as §1

Salmonella choleraesuis = assay: as above; assay type: cell-based; settings: 20-24 hours growth
Method in brief: as §1

Staphylococcus aureus = assay: as above; assay type: cell-based; settings: 20-24 hours growth
Method in brief: as §1

[1] = test system: P. aeruginosa (susceptible clinical isolate); assay: Potentiation of clinically used antibiotics, susceptible clinical isolate; assay type: cell-based, Pseudomonas aeruginosa; settings: Table 3; antibiotic alone or mixed with PP compound
Experimental: (§2) One to three colonies of bacteria were picked from an Mueller-Hinton or Brain Heart infusion agar plate (depending on the bacterial strain) and transferred to 3 ml Mueller-Hinton broth or Brain Heart infusion media (depending on the bacterial strain). Bacteria were allowed to grow for 2-4 hours in an incubator at 37° C. Bacteria-inoculated media were dispersed in 0.9% saline to match McFarland standard density. 100 μl standardized inoculation was added to 20 ml media (dilution 1). 10 μl of the new dilution was added to 990 μl media and mixed (dilution 2). 10 μl of dilution 2 was spread on an agar plate and allowed to grow overnight. Colonies were then […].
(§3) Test compound was diluted to 10 μg/ml in dimethylsulfoxide. Four μl of Rifampicin antibiotic was loaded into row H, column 2.
(§4) All wells were then filled with 100 μl of inoculated media (dilution 1 from Example 1). A further 100 μl of the inoculated media was then added to column 2 and the contents are pipetted to thoroughly mix the contents. A full 100 μl was then transferred from column 2 and mixed into column 3. This process was continued from left to right until columns 2-12 were serially diluted, and the final draw from column 12 was discarded. The plates were covered with 3M sealing tape (plates containing Enterococcus faecium were sealed with Air Pore sealing tape) and allowed to grow for 20-24 hours. Cytotoxic wells (clear wells) are then scored and the potency of the compound was determined.
Numerous pathogenic bacteria have developed a resistance to many clinically used antibiotics. Following the protocols described herein, various compounds were mixed with clinically used antibiotics to treat Pseudomonas aeruginosa (P. aeruginosa).

[2] = test system: Pseudomonas aeruginosa clinical isolate, multi-drug resistant; assay: Potentiation of clinically used antibiotics, multi-drug resistant clinical isolate; assay type: cell-based; settings: Table 4, antibiotic alone or mixed with PP compound
Experimental: as §2, §3
as §4, with “The plates were covered with 3M sealing tape (plates containing Enterococcus faecium were sealed with Air Pore sealing tape) and allowed to grow for 20-24 hours.” left out, “determined. […]” for “determined.”

Compound: Cl.Cl.Cl.Cl.Cl.Cl.Cl.NCCSC[C@H]1O[C@@H]2O[C@H]3[C@H](O)[C@@H](O)[C@@H](O[C@H]4[C@H](O)[C@@H](O)[C@@H](O[C@H]5[C@H](O)[C@@H](O)[C@@H](O[C@H]6[C@H](O)[C@@H](O)[C@@H](O[C@H]7[C@H](O)[C@@H](O)[C@@H](O[C@H]8[C@H](O)[C@@H](O)[C@@H](O[C@H]1[C@H](O)[C@H]2O)O[C@@H]8CSCCN)O[C@@H]7CSCCN)O[C@@H]6CSCCN)O[C@@H]5CSCCN)O[C@@H]4CSCCN)O[C@@H]3CSCCN
- MIC EF (Enterococcus faecium): >200 µg/mL
- MIC EC (Eschericia coli): >200 µg/mL
- MIC PA (Pseudomonas aeruginosa): >200 µg/mL
- MIC SC (Salmonella choleraesuis): >200 µg/mL
- MIC SA (Staphylococcus aureus): >200 µg/mL
- Mammalian Cytotoxicity IC50 (Lungs cancer cells A549): 829 µg/mL

Compound: Cl.Cl.Cl.Cl.Cl.Cl.Cl.NCCCSC[C@H]1O[C@@H]2O[C@H]3[C@H](O)[C@@H](O)[C@@H](O[C@H]4[C@H](O)[C@@H](O)[C@@H](O[C@H]5[C@H](O)[C@@H](O)[C@@H](O[C@H]6[C@H](O)[C@@H](O)[C@@H](O[C@H]7[C@H](O)[C@@H](O)[C@@H](O[C@H]8[C@H](O)[C@@H](O)[C@@H](O[C@H]1[C@H](O)[C@H]2O)O[C@@H]8CSCCCN)O[C@@H]7CSCCCN)O[C@@H]6CSCCCN)O[C@@H]5CSCCCN)O[C@@H]4CSCCCN)O[C@@H]3CSCCCN
- MIC EF (Enterococcus faecium): >200 µg/mL
- MIC PA (Pseudomonas aeruginosa): >200 µg/mL
- MIC SC (Salmonella choleraesuis): >200 µg/mL
- MIC SA (Staphylococcus aureus): >200 µg/mL
- Mammalian Cytotoxicity IC50 (Lungs cancer cells A549): 191 µg/mL

Compound: Cl.Cl.Cl.Cl.Cl.Cl.Cl.NCCCCSC[C@H]1O[C@@H]2O[C@H]3[C@H](O)[C@@H](O)[C@@H](O[C@H]4[C@H](O)[C@@H](O)[C@@H](O[C@H]5[C@H](O)[C@@H](O)[C@@H](O[C@H]6[C@H](O)[C@@H](O)[C@@H](O[C@H]7[C@H](O)[C@@H](O)[C@@H](O[C@H]8[C@H](O)[C@@H](O)[C@@H](O[C@H]1[C@H](O)[C@H]2O)O[C@@H]8CSCCCCN)O[C@@H]7CSCCCCN)O[C@@H]6CSCCCCN)O[C@@H]5CSCCCCN)O[C@@H]4CSCCCCN)O[C@@H]3CSCCCCN
- MIC EF (Enterococcus faecium): >200 µg/mL
- MIC EC (Eschericia coli): >200 µg/mL
- MIC PA (Pseudomonas aeruginosa): >200 µg/mL
- MIC SC (Salmonella choleraesuis): >200 µg/mL
- MIC SA (Staphylococcus aureus): >200 µg/mL
- Mammalian Cytotoxicity IC50 (Lungs cancer cells A549): 198 µg/mL

Compound: O=C(NCC1OC2OC3C(CNC(=O)C4CCCN4)OC(OC4C(CNC(=O)C5CCCN5)OC(OC5C(CNC(=O)C6CCCN6)OC(OC6C(CNC(=O)C7CCCN7)OC(OC7C(CNC(=O)C8CCCN8)OC(OC8C(CNC(=O)C9CCCN9)OC(OC1C(O)C2O)C(O)C8O)C(O)C7O)C(O)C6O)C(O)C5O)C(O)C4O)C(O)C3O)C1CCCN1.O=C(O)C(F)(F)F.O=C(O)C(F)(F)F.O=C(O)C(F)(F)F.O=C(O)C(F)(F)F.O=C(O)C(F)(F)F.O=C(O)C(F)(F)F.O=C(O)C(F)(F)F (stereo not drawn)
- MIC EF (Enterococcus faecium): >200 µg/mL
- MIC EC (Eschericia coli): >200 µg/mL
- MIC PA (Pseudomonas aeruginosa): >200 µg/mL
- MIC SC (Salmonella choleraesuis): >200 µg/mL
- MIC SA (Staphylococcus aureus): >200 µg/mL
- Mammalian Cytotoxicity IC50 (Lungs cancer cells A549): 524 µg/mL

Compound: Cl.Cl.Cl.Cl.Cl.Cl.Cl.NCCCCCCSC[C@H]1O[C@@H]2O[C@H]3[C@H](O)[C@@H](O)[C@@H](O[C@H]4[C@H](O)[C@@H](O)[C@@H](O[C@H]5[C@H](O)[C@@H](O)[C@@H](O[C@H]6[C@H](O)[C@@H](O)[C@@H](O[C@H]7[C@H](O)[C@@H](O)[C@@H](O[C@H]8[C@H](O)[C@@H](O)[C@@H](O[C@H]1[C@H](O)[C@H]2O)O[C@@H]8CSCCCCCCN)O[C@@H]7CSCCCCCCN)O[C@@H]6CSCCCCCCN)O[C@@H]5CSCCCCCCN)O[C@@H]4CSCCCCCCN)O[C@@H]3CSCCCCCCN
- MIC EF (Enterococcus faecium): >200 µg/mL
- MIC PA (Pseudomonas aeruginosa): >200 µg/mL
- MIC SA (Staphylococcus aureus): >200 µg/mL
- Mammalian Cytotoxicity IC50 (Lungs cancer cells A549): 321 µg/mL

Compound: Cl.Cl.Cl.Cl.Cl.Cl.Cl.Cl.Cl.Cl.Cl.Cl.Cl.Cl.NCCCC[C@@H](N)C(=O)NC[C@H]1O[C@@H]2O[C@H]3[C@H](O)[C@@H](O)[C@@H](O[C@H]4[C@H](O)[C@@H](O)[C@@H](O[C@H]5[C@H](O)[C@@H](O)[C@@H](O[C@H]6[C@H](O)[C@@H](O)[C@@H](O[C@H]7[C@H](O)[C@@H](O)[C@@H](O[C@H]8[C@H](O)[C@@H](O)[C@@H](O[C@H]1[C@H](O)[C@H]2O)O[C@@H]8CNC(=O)[C@H](N)CCCCN)O[C@@H]7CNC(=O)[C@H](N)CCCCN)O[C@@H]6CNC(=O)[C@H](N)CCCCN)O[C@@H]5CNC(=O)[C@H](N)CCCCN)O[C@@H]4CNC(=O)[C@H](N)CCCCN)O[C@@H]3CNC(=O)[C@H](N)CCCCN
- MIC EF (Enterococcus faecium): >200 µg/mL
- MIC EC (Eschericia coli): >200 µg/mL
- MIC PA (Pseudomonas aeruginosa): >200 µg/mL
- MIC SC (Salmonella choleraesuis): >200 µg/mL
- MIC SA (Staphylococcus aureus): >200 µg/mL
- Mammalian Cytotoxicity IC50 (Lungs cancer cells A549): 2990 µg/mL

Compound: I.I.I.I.I.I.I.N=C(N)SCC1OC2OC3C(CSC(=N)N)OC(OC4C(CSC(=N)N)OC(OC5C(CSC(=N)N)OC(OC6C(CSC(=N)N)OC(OC7C(CSC(=N)N)OC(OC8C(CSC(=N)N)OC(OC1C(O)C2O)C(O)C8O)C(O)C7O)C(O)C6O)C(O)C5O)C(O)C4O)C(O)C3O (stereo not drawn)
- MIC EF (Enterococcus faecium): >200 µg/mL
- MIC EC (Eschericia coli): >200 µg/mL
- MIC PA (Pseudomonas aeruginosa): >200 µg/mL
- MIC SC (Salmonella choleraesuis): >200 µg/mL
- MIC SA (Staphylococcus aureus): >200 µg/mL
- Mammalian Cytotoxicity IC50 (Lungs cancer cells A549): 480 µg/mL

Compound: Cl.Cl.Cl.Cl.Cl.Cl.Cl.Cl.Cl.Cl.Cl.Cl.Cl.Cl.NCCCC(N)C(=O)NCC1OC2OC3C(CNC(=O)C(N)CCCN)OC(OC4C(CNC(=O)C(N)CCCN)OC(OC5C(CNC(=O)C(N)CCCN)OC(OC6C(CNC(=O)C(N)CCCN)OC(OC7C(CNC(=O)C(N)CCCN)OC(OC8C(CNC(=O)C(N)CCCN)OC(OC1C(O)C2O)C(O)C8O)C(O)C7O)C(O)C6O)C(O)C5O)C(O)C4O)C(O)C3O (stereo not drawn)
- MIC EF (Enterococcus faecium): >200 µg/mL
- MIC EC (Eschericia coli): >200 µg/mL
- MIC SC (Salmonella choleraesuis): >200 µg/mL
- MIC SA (Staphylococcus aureus): >200 µg/mL
- Mammalian Cytotoxicity IC50 (Lungs cancer cells A549): 860 µg/mL

Compound: Cl.Cl.Cl.Cl.Cl.Cl.NCCCCSCC1OC2OC3C(CSCCCCN)OC(OC4C(CSCCCCN)OC(OC5C(CSCCCCN)OC(OC6C(CSCCCCN)OC(OC7C(CSCCCCN)OC(OC1C(O)C2O)C(O)C7O)C(O)C6O)C(O)C5O)C(O)C4O)C(O)C3O (stereo not drawn)
- MIC EF (Enterococcus faecium): >200 µg/mL
- MIC EC (Eschericia coli): >200 µg/mL
- MIC PA (Pseudomonas aeruginosa): >200 µg/mL
- MIC SC (Salmonella choleraesuis): >200 µg/mL
- MIC SA (Staphylococcus aureus): >200 µg/mL
- Mammalian Cytotoxicity IC50 (Lungs cancer cells A549): 589 µg/mL

Compound: Cl.Cl.Cl.Cl.Cl.Cl.Cl.NCc1ccccc1CSCC1OC2OC3C(CSCc4ccccc4CN)OC(OC4C(CSCc5ccccc5CN)OC(OC5C(CSCc6ccccc6CN)OC(OC6C(CSCc7ccccc7CN)OC(OC7C(CSCc8ccccc8CN)OC(OC8C(CSCc9ccccc9CN)OC(OC1C(O)C2O)C(O)C8O)C(O)C7O)C(O)C6O)C(O)C5O)C(O)C4O)C(O)C3O (stereo not drawn)
- MIC EF (Enterococcus faecium): >100 µg/mL
- MIC PA (Pseudomonas aeruginosa): >100 µg/mL
- Mammalian Cytotoxicity IC50 (Lungs cancer cells A549): 193.5 µg/mL

Compound: COc1cccc(OC)c1C(=O)N[C@@H]1C(=O)N2[C@@H]1SC(C)(C)[C@@H]2C(=O)O [Methicillin]
- Activity of known antibiotics alone or in combination with compounds of the invention, P. aeruginosa (susceptible clinical isolate) [1]: >100

- MIC [2]: > 100 µg/mL
Compound: CCn1cc(C(=O)O)c(=O)c2cc(F)c(N3CCNCC3)cc21 [Norfloxacin]

Compound: CC1(C)S[C@@H]2[C@H](NC(=O)COc3ccccc3)C(=O)N2[C@H]1C(=O)O [Penicillin V]
- Activity of known antibiotics alone or in combination with compounds of the invention, P. aeruginosa (susceptible clinical isolate) [1]: >100

Compound: CN[C@H](CC(C)C)C(=O)N[C@H]1C(=O)N[C@@H](CC(N)=O)C(=O)N[C@H]2C(=O)N[C@H]3C(=O)N[C@H](C(=O)N[C@H](C(=O)O)c4cc(O)cc(O)c4-c4cc3ccc4O)[C@H](O)c3ccc(c(Cl)c3)Oc3cc2cc(c3O[C@@H]2O[C@H](CO)[C@@H](O)[C@H](O)[C@H]2O[C@H]2C[C@](C)(N)[C@H](O)[C@H](C)O2)Oc2ccc(cc2Cl)[C@H]1O [Vancomycin]
- Activity of known antibiotics alone or in combination with compounds of the invention, P. aeruginosa (susceptible clinical isolate) [1]: >100
